Laboratory results: US8372880B2, “Compositions and methods using same for treating amyloid-associated diseases” (Tel Aviv University Future Technology Development L.P., priority 2003, dated 2013)
Where “and” joins values, the source holds several entries; their conditions need not be identical. Identical values can stand only once. Like-named read-outs stand apart in the source and are kept apart here.

Assays:
[1] = target: T1, hIAPP1-37 (Homo sapiens, UniProt P10997); assay: Thioflavin T fluorescence assay of fibril formation; format: biochemical
T1 construct: purchased Calbiochem (CalBiochem Calif., USA); host or cells: solid-phase chemical synthesis
T1 sequence (P10997 34-70 limits assumed): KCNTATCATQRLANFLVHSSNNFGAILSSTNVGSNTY
Protocol: Fibrillization of hIAPP1-37 was monitored by Thioflavin T dye binding assay. hIAPP1-37 stock solution was diluted to a final concentration of 4 μM in 10 mM sodium acetate buffer (pH 6.5) with or without inhibitor, and a final HFIP concentration of 1% (vol). […] In every measurement ThT was added to a final concentration of 3 μM and measurements were carried out using Perkin Elmer (excitation 450 nm, 2.5 nm slit; emission 480 nm 10 nm slit). […] Background was subtracted from all samples.
Thioflavin T (ThT) is commonly used for detecting the level of amyloid formation. hIAPP1-37 solution was prepared as described above. Following incubation in the presence or absence of phenol red and addition of 3 μM ThT to each sample, fluorescence was measured.
Fibrillization of hIAPP1-37 was monitored by Thioflavin T (ThT) dye binding assay, as described above, using an inhibitor concentration of 40 μM or 4 μM.

[2] = system: Caco-2 cells
Protocol: LDH Assay: 100 μl of cells supernatant were removed from the basolateral chamber at the end of transport experiment. LDH release was assayed according to the manufacturer instructions using cytotoxicity detection kit (Roche, Cat. No. 1 644 793).
Specifically, an increase in the amount of dead or plasma membrane-damaged cells results in release of lactate dehydrogenase (LDH) enzyme to the surrounding buffer. The enzymatic activity of LDH is measured in a colorimetric assay. A surfactant that damages cell membranes is used as a positive control.
Short term damage—LDH Release: LDH activity in basolateral buffer from inserts of each group (n=2) was measured in a colorimetric assay as described hereinabove. The positive control glycocholate was previously assayed and is shown for comparison.

[3] = system: Caco-2 cells; settings: for recovery at experiment end point: 90 minutes
Protocol: Cells at passage 68 were used in these studies. Caco-2 cells were grown in high D-glucose DMEM medium supplemented with 1% L-glutamine, 1% nonessential amino acids, 1% sodium pyruvate, 1% penicillinstreptomycin and 10% fetal bovine serum.
Cells (passage 68) were harvested after 95% confluence and seeded at a density of 85,000 cells per polycarbonate membranes (0.4 μm pore size and a surface area of 0.33 cm^2) inserts. Cells on inserts were cultured for 10 days.
Transport studies: Test substances transport across Caco-2 monolayers was investigated in ‘apical to basolateral’ direction (n=2), at two time points (45 and 90 minutes).
Prior to the experiment, the culture medium was removed; cells were washed twice with 150 μl apical buffer and 600 μl basolateral buffer (containing 25 mM D-glucose, 20 mM HEPES biological buffer, 1.25 mM CaCl2, 0.5 mM MgCl2, adjusted to pH 7.4 with KOH) and were incubated for 30 minutes at 37° C., 45 RPM, with the same buffers.
Transport studies were performed at 37° C., with shaking at 45 RPM with either the tested compounds or standards (n=2). At each time point, aliquot of 120 μl Basolateral sample was drawn from each insert. For the radioactive marker Mannitol, 20 μl duplicate aliquots were drawn at each time point. […] At endpoint (90 minutes), the whole volume of the apical and basolateral chambers was collected.
Data Recording: Substance samples and propranolol standard samples were analyzed using HPLC (see below for analyses details). [^3H]-Mannitol samples were subjected to analysis by liquid scintillation counting in a Packard TopCount NXT. The results were obtained in CPM.
Papp Calculations: Apparent permeability coefficients (Papp) of tested compounds and standards were calculated from the following equation: Papp(t)=(CtV/t)×(1/C0A) where C0 is the initial concentration (at t=0) of the compound on the donor (apical side); Ct is the concentration at the calculated time point (t) in the receiver (basolateral) chamber; V is receiver chamber volume; A is the surface area of the monolayer; and t is the elapsed time.
Compound and standards Recovery: At the last time point of the experiment (90 minutes), basolateral and apical amounts values were measured and recovery (%) of the tested compound or standard was calculated according to the following equation: Recovery %=(C90 min×Vbasolateral)+(C90 min×Vapical)/C0×Vapical
HPLC analyses: HPLC analyses were performed using a Waters 2790 HPLC system, equipped with PDA 996 detector (Waters).

[4] = target: T2, hIAPP20-29 (Homo sapiens, UniProt P10997); assay: Kinetic aggregation assay (turbidity); format: biochemical; settings: 1 mM peptide, 40 mM inhibitor, Tris pH 7.2, 4% DMSO
T2 construct: purchased Peptron, Inc. (Taejeon, Korea); host or cells: solid-phase chemical synthesis
Protocol: Stock solutions of hIAPP22-29 and hIAPP20-29 peptide were prepared by dilution of lyophilized peptides into 10 mM Tris-HCl (pH 7.2) buffer to a final concentration of 1 mM peptide and 4% DMSO. Turbidity data were collected at 405 or 560 nm at room temperature. A buffer solution containing the same amount of DMSO as the tested samples was used as blank. Turbidity was measured using disposable UVette cuvettes (Eppendorf, Germany) and a Scinco S-3100 spectrophotometer.
The core amyloidogenic fragments of hIAPP (hIAPP22-29, hIAPP20-29) aggregate in an aqueous solution. Such an aggregation behavior was served as a preliminary assay for amyloid formation.
In order to evaluate the ability of phenol red to inhibit amyloid formation, the aggregation of 1 mM hIAPP22-29 and hIAPP20-29 (SEQ ID NO: 1 and NO: 2, respectively) was examined in the absence or presence of 40 mM phenol red. To verify the specificity of phenol red molecule towards hIAPP core peptides, a very similar molecule—phenolphthaleine, which differs only by the lack of the sulfon group, was used as control (FIG. 7).

[5] = target: T2, hIAPP20-29; assay: Transmission electron microscopy of fibrils; format: biochemical; settings: hIAPP20-29 with inhibitor, 24 hr incubation
Protocol: 10 μL samples of hIAPP22-29 or hIAPP20-29 from the aggregation assay, and hIAPP1-37 from the fluorescence assay were placed on 400-mesh copper grids (SPI supplies, West Chester Pa.) covered by carbon-stabilized Formvar film. After 1 minute, excess fluid was removed, and the grids were negatively stained with 2% uranyl acetate in water for another two minutes. Samples were viewed in a JEOL 1200EX electron microscope operating at 80 kV.
Samples of hIAPP22-29 and hIAPP20-29 taken from the aggregation assay (described in Example 3) were visualized using transmission electron microscopy. As is shown in FIG. 4a, distinct and well-defined amyloid fibers were observed 3 and 72 hours after initiation of aggregation in both samples of the hIAPP22-29 peptide, with a minor increase in fiber density and width following 72 hours. […] Same results were obtained with the hIAPP20-29 peptide after 24 hr incubation (FIG. 4b) in the presence of phenol red inhibitor. No inhibition was observed using phenolphthaleine under the same conditions and fibrillar structures were evident on the TEM grid.

[6] = Pharmacokinetics in mice, intravenous administration; settings: for PF3 Concentration / Phenol red Concentration, Analyzed: mice plasma
Protocol: (§1) Male mice (ICR), 5 weeks of age, weighing 27-32 grams at study initiation were used. A total of sixteen animals were tested in each set of experiments, divided to 8 groups, 2 animals in each group. Animals were acclimatized for 5-7 days. All test animals was kept under environmental controlled housing conditions throughout the entire study period, and maintained in accordance with Harlan Biotech Israel (HBI) approved standard operation procedures (SOP's).
A single slow intravenous injection (over a period of approximately one minute) was administered into one of the tail veins of each animal.
Dosing solutions were prepared in a co-solvent vehicle system containing DMA:PEG400:Saline 25:40:35 respectively (e.g., each 1 ml consists of 0.25 ml DMA, 0.4ml PEG400 and 0.35 ml Saline).
Dosing solutions were freshly and identically prepared prior to dosing, as deemed necessary.
Blood samples were taken at the following time points: pre-dosing (time 0), 5, 15, 30, 60, 90, 120 and 300 minutes post dosing, two animals per time point, by retro orbital sinus bleeding under CO2 anesthesia. Individual blood samples of at least 0.4 ml whole blood were collected into pre-labeled lithium heparin coated tubes. Plasma separation was made as soon as possible after collection, by centrifugation at 2500G for 15 minutes. After centrifugation supernatant was transferred to eppendorff tube (1.5 ml) pre-labeled with the appropriate animal number, study number and time post dosing. Plasma samples were kept at about −20° C.
(§2) Analysis was performed in Analyst Ltd., using LC/MS/MS method.
(§3) The chromatographic separation was achieved on a Gemini C1 8 column (50×2.0 mm, 5 μm), using 50:50 acetonitrile:water solution containing 0.1% NH4OH as the mobile phase, at a flow rate of 0.3 ml/minute.
(§4) All samples were analyzed by the Micromass Quattro Pt triple-quadrupole mass selective detector equipped with an electrospray ionization source. […] The system includes a 2795 HT Waters HPLC and Masslynx v.4.0 software. Quanlynx v.4.0 software was used for calculation.
(§5) For calculation of phenol red concentration in samples, weighted linear regression curves (1/x^2) were calculated from response of analyte versus calibration standard concentration. The weighted linear regression correlation coefficient was grater than 0.99.
(§6) K Parameters Calculations: PK parameters were calculated using Winnonlin Pro 4.01 software (Pharsight).

[7] = Pharmacokinetics in mice, oral administration
Protocol: as §1
Administration to test animals was performed orally, following food deprivation of about 3.5-5 hours, by the use of gavage needle made of stainless steel which was introduced directly to the stomach.
Dosing solutions were prepared as described hereinabove for the I.V. administration.
Blood samples were taken, as described hereinabove, at the following time points: 30, 45, 60, 120, 180, 240, 300 and 360 minutes post dosing, two animals per time point, by retro orbital sinus bleeding under CO2 anesthesia.
as §2, §3, §4, §5, §6

[8] = system: βTC-tet cells; assay: MTT cell viability assay, hIAPP cytotoxicity; format: cell-based, murine; settings: 4 μM hIAPP1-37, 24 hrs, phenol red in medium, 50% without phenol red
Protocol: βTC-tet cells [Fleischer, N., Chen C., Surana, M., Leiser, M., Rossetti, L., Pralong, W. and Efrat, S. (1998) Functional analysis of a conditionally transformed pancreatic beta-cell line, Diabetes 47, 1419-1425] or PC12 cells (ATCC # CRL-1721) were plated on 24-well plates (2-10^5/well) or on 96-well plates (1-10^4/well) respectively, and allowed to adhere for 24 hours. Synthetic hIAPP1-37 stock solution was diluted to a final concentration of 4 μM in serum free growth medium [Fleischer (1998) Supra] containing DMEM with or without phenol red. Immediately following dilution, samples were centrifuged at 4° C. for 20 minutes at 20,000 g, and the supernatant was bubbled with nitrogen for 30 min to evaporate residual HFIP. Cells were washed twice with PBS and incubated with the supernatant for 24 hrs. MTT (Sigma M-2128) was then added for 3 hrs, followed by addition of lysis buffer and incubation over night. Assay was effected according to Manufacturer's instructions. Samples were read at 570 nm. Cell viability was calculated in comparison to cells incubated in the absence of hIAPP in medium with or without phenol red, respectively.
The ability of phenol red to modulate cytotoxicity effect of hIAPP amyloid assemblies on pancreatic β cells in culture was addressed. […]

[9] = 4 μM hIAPP1-37, 40 μM inhibitor
[10] = I.V. PF3, 5 minutes post dosing
[11] = I.V. PF3, 15 minutes post dosing
[12] = I.V. PF3, 30 minutes post dosing
[13] = I.V. PF3, 60 minutes post dosing
[14] = I.V. PF3, 125 minutes post dosing
[15] = I.V. PF3, 300 minutes post dosing
[16] = phenol red plasma profile, mice, I.V. PF3
[17] = phenol red plasma profile, mice, I.V. PF3 .25 mg/kg

**Q.** For `COc1ccc(C2(c3ccc(OC)cc3)OS(=O)(=O)c3ccccc32)cc1` [PF4, dimethoxy phenol red], which “inhibition of hIAPP1-37 fibril formation (ThT fluorescence)” value (shortened to “inhibition of hIAPP1-37 fibril formation”) [1, 9] is on record?
**A.** Its value is “reduced inhibition effect relatively to the phenol red molecule”.

**Q.** What about the “inhibition of hIAPP1-37 fibril formation” value ([1]; 40 μM inhibitor, sample not centrifuged) of the same molecule?
**A.** Its value is “more evident”.

**Q.** And the “cytotoxicity (LDH activity in basolateral buffer)” value ([2]; CaCo-2 inserts after transport experiment)?
**A.** The value was “negligible”.

**Q.** And the “recovery at experiment end point” value ([3]; 0.2 mM concentration)?
**A.** Its value is 105%±31%.

**Q.** What about the “recovery at experiment end point” value ([3]; 1 mM concentration) of the same molecule?
**A.** Its value is 123%±48%.

**Q.** What about the “detection at the basolateral chamber” value ([3]; both tested concentrations) of the same molecule?
**A.** The value was “not detected”.

**Q.** Which results are given for `O=C1OC(c2ccc(O)cc2)(c2ccc(O)cc2)c2ccccc21` [phenolphthaleine]?
**A.** aggregation of hIAPP20-29 (turbidity) [4]: No inhibition effect; fibril morphology by TEM [5]: No inhibition; fibril morphology by TEM ([5]; listed as phenolephthaleine): no inhibition effect

**Q.** Which “inhibition of hIAPP1-37 fibril formation” value [1, 9] does the source give for diacetoxy phenol red [PF3] here?
**A.** Its value is “reduced inhibition effect relatively to the phenol red molecule”.

**Q.** What about the “LDH activity in basolateral buffer” value ([2]; 0.1 mM, only one of the inserts, not repeated, attributed to a factor other than PF3) of the same molecule?
**A.** Its value is “increase in LDH activity was detected”.

**Q.** And the “PF3 Concentration” value [6, 10]?
**A.** The value was “n/d (not detected and denotes a concentration lower than 5 ng/ml)”.

**Q.** What about the “Phenol red Concentration, Analyzed” value [6, 10] of the same molecule?
**A.** The value was >20 µg/mL.

**Q.** And the “PF3 Concentration” value [6, 11]?
**A.** The value was “n/d (not detected and denotes a concentration lower than 5 ng/ml)”.

**Q.** What about the “Phenol red Concentration, Analyzed” value [6, 11] of the same molecule?
**A.** The value was >20 µg/mL.

**Q.** And the “PF3 Concentration” value [6, 12]?
**A.** The value was “n/d (not detected and denotes a concentration lower than 5 ng/ml)”.

**Q.** What about the “Phenol red Concentration, Analyzed” value [6, 12] of the same molecule?
**A.** The value was >20 µg/mL.

**Q.** And the “PF3 Concentration” value [6, 13]?
**A.** Its value is “n/d (not detected and denotes a concentration lower than 5 ng/ml)”.

**Q.** And the “Phenol red Concentration, Analyzed” value [6, 13]?
**A.** The value was 4.12 µg/mL and 4.33 µg/mL.

**Q.** What about the “PF3 Concentration” value ([6]; I.V. PF3, 90 minutes post dosing) of the same molecule?
**A.** Its value is “n/d (not detected and denotes a concentration lower than 5 ng/ml)”.

**Q.** What about the “PF3 Concentration” value [6, 14] of the same molecule?
**A.** The value was “n/d (not detected and denotes a concentration lower than 5 ng/ml)”.

**Q.** And the “Phenol red Concentration, Analyzed” value [6, 14]?
**A.** The value was 0.76 µg/mL.

**Q.** And the “PF3 Concentration” value [6, 15]?
**A.** Its value is “n/d (not detected and denotes a concentration lower than 5 ng/ml)”.

**Q.** What about the “Phenol red Concentration, Analyzed” value [6, 15] of the same molecule?
**A.** Its value is 0.22 µg/mL and 0.29 µg/mL.

**Q.** What about the “presence of the pro-drug PF3 in plasma” value ([6]; mice, following I.V. administration, even after 5 minutes) of the same molecule?
**A.** Its value is “not observed”.

**Q.** What about the “AUC (area under the curve)” value [6, 16] of the same molecule?
**A.** The value was 2232 µg·min/mL.

**Q.** What about the “Volume of distribution (Vss)” value [6, 16] of the same molecule?
**A.** The value was 0.367 L/kg.

**Q.** What about the Clearance [6, 17] of the same molecule?
**A.** Its Clearance is 11 mL/min/kg.

**Q.** What about the “Half Life” value [6, 17] of the same molecule?
**A.** Its value is 40 min.

**Q.** And the “presence of the pro-drug PF3 in plasma” value ([7]; following oral administration)?
**A.** The value was “not detected”.

**Q.** What about the intestinal absorption ([7]; oral administration) of the same molecule?
**A.** Its intestinal absorption is “clearly absorbed in the intestine”.

**Q.** And the “Half Life” value ([7]; phenol red plasma profile, P.O. PF3 […])?
**A.** The value was 32 min.

**Q.** And the “F, Bioavailability” value ([7]; phenol red plasma profile, P.O. PF3 […] vs I.V.)?
**A.** The value was 16%.

**Q.** What about the “recovery at experiment end point” value ([3]; 1 mM concentration) of the same molecule?
**A.** The value was 53%±5%.

**Q.** And the permeability grading ([3]; CaCo-2, apical to basolateral)?
**A.** The permeability grading was “low-medium range”.

**Q.** And the “Papp values compared to standards” value ([3]; apical to basolateral, 45 and 90 minutes)?
**A.** Its value is “higher than mannitol (a marker of paracellular transport) Papp values and lower than propranolol”.

**Q.** What about the detection of transport ([3]; higher concentration (0.1 mM)) of the same molecule?
**A.** Its detection of transport is “detected”.

**Q.** What about the “detection in the basolateral chamber” value ([3]; lower concentration (0.02 mM), 45 and 90 minutes) of the same molecule?
**A.** Its value is “not detected”.

**Q.** With `Nc1c(/N=N/c2ccc(-c3ccc(/N=N/c4cc(S(=O)(=O)O)c5ccccc5c4N)cc3)cc2)cc(S(=O)(=O)O)c2ccccc12` [congo red, Congo red, reference compound] as the molecule, how does the “inhibition of hIAPP1-37 fibril formation” value ([1]; green tea polyphenols experiment, 48 hr to 12 days) read?
**A.** The value was “inhibitory effect”.

**Q.** With `O=S1(=O)OC(c2ccc(O)cc2)(c2ccc(O)cc2)c2ccccc21` [phenol red] as the molecule, how does the IC50 ([1]; 4 μM hIAPP1-37, gradual concentration of phenol red, read-out: IC50 of inhibition of fibril formation (ThT fluorescence)) read?
**A.** The IC50 was ~2500 nM.

**Q.** What about the “inhibition level of fibril formation (ThT end point)” value ([1]; phenol red concentration of 20 μM and above, after one week of incubation) of the same molecule?
**A.** The value was “about 90%”.

**Q.** What about the “cell viability (MTT)” value [8] of the same molecule?
**A.** The value was 80%.
